Laboratory results reported in the CheMixHub ionic liquid set.
Where “and” joins values, the source holds several entries; their conditions need not be identical. Equal entries are not always repeated.

Assay: xn = mol fraction of the nth substance listed

O=S(=O)([N-]S(=O)(=O)C(F)(F)C(F)(F)F)C(F)(F)F.[Li+] + O=S(=O)([O-])C(F)(F)F.[Li+] + O
101 kPa
Conditions	electrical conductivity, x1 = 0.1527, x2 = 0.1527 [S/m]	electrical conductivity, x1 = 0.2128, x2 = 0.08265	electrical conductivity, x1 = 0.2128, x2 = 0.1527 [S/m]	electrical conductivity, x1 = 0.2551, x2 = 0.08265	electrical conductivity, x1 = 0.2649, x2 = 0 [S/m]	electrical conductivity, x1 = 0.3106, x2 = 0.1527 [S/m]	viscosity, x1 = 0.2128, x2 = 0.08265 [mPa·s]	viscosity, x1 = 0.2551, x2 = 0.08265 [mPa·s]	viscosity, x1 = 0.2649, x2 = 0 [mPa·s]
283 K	–	0.39 S/m	–	0.195 S/m	0.36	–	186	406	255
293 K	–	0.57 S/m	–	0.298 S/m	0.531	–	110	228	145
298.1 K	0.83	0.675 S/m and 0.68 S/m	0.41	0.362 S/m and 0.37 S/m	0.646	0.16	87	177	114
303 K	–	0.788 S/m	–	0.433 S/m	0.762	–	70.9	141	89.8
313 K	–	1.05 S/m	–	0.599 S/m	1.02	–	48.4	90.1	58.8
323 K	–	1.36 S/m	–	0.791 S/m	1.33	–	33.9	61.6	40.2
333 K	–	1.7 S/m	–	1.02 S/m	1.67	–	24.8	43.2	29.1

CCCC[N+]1(C)CCCC1.F[B-](F)(F)F + CC1COC(=O)O1 + CCCC[N+]1(C)CCCC1.O=S(=O)([N-]S(=O)(=O)C(F)(F)F)C(F)(F)F
293.15 K, 100 kPa, x2 = 0.4706, x3 = 0.05882
Conditions	electrical conductivity [S/m]	viscosity [mPa·s]
–	0.96	7.6

CCC(C)=O + CCCC[n+]1ccn(C)c1.F[B-](F)(F)F
viscosity [mPa·s]
Conditions	298.15 K	303.15 K	313.15 K	323.15 K	333.15 K
100 kPa, x2 = 0	–	0.367	0.333	0.304	0.29
100 kPa, x2 = 0.0997	–	0.817	0.737	0.688	0.595
100 kPa, x2 = 0.1995	–	1.594	1.424	1.27	1.189
100 kPa, x2 = 0.2996	–	2.941	2.486	2.135	1.878
100 kPa, x2 = 0.3997	–	5.054	4.146	3.479	2.97
100 kPa, x2 = 0.5001	–	8.51	6.778	5.465	4.57
100 kPa, x2 = 0.6001	–	14.01	10.62	8.302	6.74
100 kPa, x2 = 0.6998	–	22.67	16.37	12.55	9.78
100 kPa, x2 = 0.7999	–	35.13	24.24	17.78	13.54
100 kPa, x2 = 0.8993	–	54.16	35.18	24.79	18.41
101.33 kPa, x1 = 0.1005	67.9	–	–	–	–
101.33 kPa, x1 = 0.3107	22.7	–	–	–	–
101.33 kPa, x1 = 0.6995	3.17	–	–	–	–

CCO + CS(=O)(=O)[O-].C[N+](C)(CCO)CCO
101 kPa, x2 = 0
Conditions	viscosity [mPa·s]
298.15 K	1.102
303.15 K	1.002
308.15 K	0.915
313.15 K	0.837
318.15 K	0.768
323.15 K	0.706
